Experimental data published in patent US4318989A, “Starch-degrading enzymes from Cladosporium resinae” (Lifeline Products, Inc., priority 1980, dated 1982).

Key:
[1] = test system: Cladosporium resinae glucoamylase S; test: Kinetic constants of glucoamylases (release of glucose from substrate); type: biochemical, Cladosporium resinae (ATCC No. 20495); details: Table VI
[2] = test system: Aspergillus niger glucoamylase II; test: as above; type: biochemical; details: Table VI
Description: In assaying the rate of release of glucose from starch, pullulan or maltose, enzyme solution (culture solution) (0.1 ml) undiluted or diluted up to 100-fold, was incubated with substrate solution (0.5 ml) for 5 to 20 minutes at 37° C. […]. This reaction was terminated and the color developed by adding 50% HCl solution (2 ml). Substrates employed were pullulan, maltose and J. T. Baker Starch (Lintner) Soluble all at 5 mg/ml concentration and in 0.1 M sodium acetate buffer pH 4.3. α-amylase was assayed by the method described in Marshall, J.J., et al, Clinica Chemica Acta, 76, 277 (1977).
The relative rates of hydrolysis of several glucooligosaccharides and polysaccharides are shown in Table V based upon data shown in FIG. 6-11. Results are compared to those obtained using Aspergillus niger glucoamylase II. […] Table VI provides the kinetic constants of the Cladosporium resinae glucoamylases and Asperigillus niger glucoamylase.

OC[C@H]1O[C@H](O[C@H]2[C@H](O)[C@@H](O)C(O)O[C@@H]2CO)[C@H](O)[C@@H](O)[C@@H]1O (mixture of isomers) [Maltose]
VMAX [1]: 2.9 μmoles glucose released per mi
VMAX [2]: 4.8 μmoles glucose released per mi
